From PubChem BioAssay AID330 (DTP/NCI, 2004)
“And” between values parts separate entries of the source, which are not always exact repeats. Equal entries are not always repeated. Inconclusive results and toxic doses are left out. How the source made its calls: active means survival T/C of 150% or more; inactive means T/C below 125% in these data. Square brackets hold non-standard residues; d marks the D form. Peptide text beside a SMILES is read from it. * marks the point of attachment. Cbz = O=C(OCc1ccccc1)*; Nva = CCC[CH](N)C(=O)O

Tested on: P388 leukemia ip, CD2F1 mice, survival T/C
Assay: NCI In Vivo Anticancer Drug Screen. Data for tumor model P388 Leukemia (intraperitoneal) in CD2F1 (CDF1) mice
Conditions: endpoint: median survival time, higher = longer survival
Method in brief: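 Mice carrying the transplanted tumor received test compound or vehicle. Survival was recorded in each group, and the value is the treated-group measurement divided by that of the vehicle-treated control group.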

[1] = dose: 50.0 mg/kg/injection, schedule: Q01DX005 (ip), vehicle: saline with Tween-80
[2] = dose: 100.0 mg/kg/injection, schedule: Q01DX005 (ip), vehicle: saline with Tween-80
[3] = dose: 200.0 mg/kg/injection, schedule: Q01DX005 (ip), vehicle: saline with Tween-80
[4] = dose: 50.0 mg/kg/injection, schedule: Q01DX009 (ip), vehicle: saline with Tween-80
[5] = dose: 100.0 mg/kg/injection, schedule: Q01DX009 (ip), vehicle: saline with Tween-80
[6] = dose: 25.0 mg/kg/injection, schedule: Q01DX009 (ip), vehicle: saline
[7] = dose: 50.0 mg/kg/injection, schedule: Q01DX009 (ip), vehicle: saline
[8] = dose: 100.0 mg/kg/injection, schedule: Q01DX009 (ip), vehicle: saline
[9] = dose: 200.0 mg/kg/injection, schedule: Q01DX009 (ip), vehicle: saline
[10] = dose: 50.0 mg/kg/injection, schedule: Q01DX005 (ip), vehicle: saline
[11] = dose: 100.0 mg/kg/injection, schedule: Q01DX005 (ip), vehicle: saline
[12] = dose: 200.0 mg/kg/injection, schedule: Q01DX005 (ip), vehicle: saline

Measured: T/C

CCCC(NC(=O)C(Cc1ccccc1)NC(=O)OCc1ccccc1)C(=O)O (stereo not drawn) (Cbz-Phe-[Nva]-OH; configuration not given here)
inactive: [1] 104 % of control | [2] 101 % of control | [3] 98 % of control

CC(=O)c1ccccc1C(C)C
inactive: dose: 25.0 mg/kg/injection, schedule: Q01DX009 (ip), vehicle: saline with Tween-80 100 % of control | [4] 109 % of control | [5] 119 % of control

COc1ccc(C/C(N)=N\O)cc1
inactive: dose: 50.0 mg/kg/injection, schedule: Q01DX009 (ip), vehicle: Klucel (hydroxypropylcellulose) (HPC) 108 % of control | dose: 100.0 mg/kg/injection, schedule: Q01DX009 (ip), vehicle: Klucel (hydroxypropylcellulose) (HPC) 106 % of control | dose: 200.0 mg/kg/injection, schedule: Q01DX009 (ip), vehicle: Klucel (hydroxypropylcellulose) (HPC) 117 % of control

O=C(O)Cc1c[nH]c2cc(Cl)ccc12
inactive: [4] 100 % of control | [5] 102 % of control | dose: 200.0 mg/kg/injection, schedule: Q01DX009 (ip), vehicle: saline with Tween-80 105 % of control

CC1Oc2cc3c(-c4c(O)cc(O)c5c(O)c6c(cc45)OC(C)C(C)C6=O)c(O)cc(O)c3c(O)c2C(=O)C1C (stereo not drawn)
inactive: dose: 1.25 mg/kg/injection, schedule: Q01DX005 (ip), vehicle: saline 101 % of control | dose: 1.25 mg/kg/injection, schedule: Q01DX005 (ip), vehicle: suspension in saline 100 % of control | dose: 2.5 mg/kg/injection, schedule: Q01DX005 (ip), vehicle: saline 100 % of control | dose: 2.5 mg/kg/injection, schedule: Q01DX005 (ip), vehicle: suspension in saline 95 % of control | dose: 5.0 mg/kg/injection, schedule: Q01DX005 (ip), vehicle: suspension in saline 121 % of control | dose: 10.0 mg/kg/injection, schedule: Q01DX005 (ip), vehicle: suspension in saline 116 % of control | dose: 20.0 mg/kg/injection, schedule: Q01DX005 (ip), vehicle: suspension in saline 110 % of control

COc1ccc(CCNC2=CC(=O)CCC2)cc1OC
inactive: [1] 101 % of control | [2] 99 % of control | [3] 101 % of control

COc1cccc(N)c1N
inactive: [6] 99 % of control | dose: 25.0 mg/kg/injection, schedule: Q01DX009 (ip), vehicle: suspension in saline 103 % of control | [7] 100 % of control | dose: 50.0 mg/kg/injection, schedule: Q01DX009 (ip), vehicle: suspension in saline 106 % of control | [8] 106 % of control | dose: 100.0 mg/kg/injection, schedule: Q01DX009 (ip), vehicle: suspension in saline 107 % of control | [9] 96 % of control | dose: 200.0 mg/kg/injection, schedule: Q01DX009 (ip), vehicle: suspension in saline 91 % of control

OCc1ncccc1O
inactive: [6] 99 % of control and 109 % of control | [7] 108 % of control and 100 % of control and 106 % of control | [8] 90 % of control and 102 % of control and 104 % of control | [9] 110 % of control and 111 % of control and 97 % of control

O=C(O)CC(C(=O)O)S(=O)CP(=O)(O)O (stereo not drawn)
inactive: [10] 95 % of control | [11] 103 % of control | [12] 110 % of control

COc1ccc2c(c1)CN(C)c1ccc(OC)cc1CN2C
inactive: dose: 60.0 mg/kg/injection, schedule: Q01DX005 (ip), vehicle: saline with Tween-80 100 % of control | dose: 120.0 mg/kg/injection, schedule: Q01DX005 (ip), vehicle: saline with Tween-80 104 % of control | dose: 240.0 mg/kg/injection, schedule: Q01DX005 (ip), vehicle: saline with Tween-80 100 % of control

COc1ccc(C2N(C)CCCN2C)c(OC)c1
inactive: dose: 6.25 mg/kg/injection, schedule: Q01DX009 (ip), vehicle: saline sonified 100 % of control | dose: 12.5 mg/kg/injection, schedule: Q01DX009 (ip), vehicle: saline sonified 105 % of control | dose: 25.0 mg/kg/injection, schedule: Q01DX009 (ip), vehicle: saline sonified 100 % of control

C/C=C(\C)C(=O)OC1C(C)=C2C(C1OC(=O)CCCCC)C(C)(OC(C)=O)CC(OC(=O)CCC)C1(O)C2OC(=O)C1(C)O (stereo not drawn)
inactive: dose: 0.25 mg/kg/injection, schedule: Q01DX005 (ip), vehicle: Klucel (hydroxypropylcellulose) (HPC) 105 % of control | dose: 0.5 mg/kg/injection, schedule: Q01DX005 (ip), vehicle: Klucel (hydroxypropylcellulose) (HPC) 99 % of control and 123 % of control | dose: 1.0 mg/kg/injection, schedule: Q01DX005 (ip), vehicle: Klucel (hydroxypropylcellulose) (HPC) 105 % of control | dose: 2.0 mg/kg/injection, schedule: Q01DX005 (ip), vehicle: Klucel (hydroxypropylcellulose) (HPC) 106 % of control

CC1COCCOCCOCC(C)OC(=O)CSCC(=O)O1 (stereo not drawn)
inactive: dose: 100.0 mg/kg/injection, schedule: Q04DX003 (ip), vehicle: saline 100 % of control | dose: 200.0 mg/kg/injection, schedule: Q04DX003 (ip), vehicle: saline 104 % of control | dose: 400.0 mg/kg/injection, schedule: Q04DX003 (ip), vehicle: saline 92 % of control

COc1cc(C2c3cc4c(cc3OC(C)(O)C2C)OCO4)cc(OC)c1OC (stereo not drawn)
inactive: dose: 12.5 mg/kg/injection, schedule: Q01DX005 (ip), vehicle: saline 104 % of control and 105 % of control | dose: 25.0 mg/kg/injection, schedule: Q01DX005 (ip), vehicle: saline with Tween-80 107 % of control | dose: 25.0 mg/kg/injection, schedule: Q01DX005 (ip), vehicle: saline 105 % of control | [1] 103 % of control | [10] 102 % of control and 105 % of control | [11] 107 % of control and 113 % of control | [12] 111 % of control

COc1ccc2c(=O)cc(-c3ccc4ccccc4n3)oc2c1OC
inactive: dose: 50.0 mg/kg/injection, schedule: Q01DX005 (ip), vehicle: Klucel (hydroxypropylcellulose) (HPC) 98 % of control | dose: 100.0 mg/kg/injection, schedule: Q01DX005 (ip), vehicle: Klucel (hydroxypropylcellulose) (HPC) 95 % of control | dose: 200.0 mg/kg/injection, schedule: Q01DX005 (ip), vehicle: Klucel (hydroxypropylcellulose) (HPC) 90 % of control

C[N+](C)(C)C[c-]1[c-][c-][c-][c-]1.[Fe].[c-]1[c-][c-][cH-][c-]1
inactive: dose: 1.56 mg/kg/injection, schedule: Q01DX009 (ip), vehicle: saline with Tween-80 96 % of control | dose: 3.13 mg/kg/injection, schedule: Q01DX009 (ip), vehicle: saline with Tween-80 97 % of control | dose: 6.25 mg/kg/injection, schedule: Q01DX009 (ip), vehicle: saline with Tween-80 99 % of control | dose: 12.5 mg/kg/injection, schedule: Q01DX009 (ip), vehicle: saline with Tween-80 100 % of control

O=C(Nc1ccc(C2=NCCN2)cc1)c1ccc(C(=O)Nc2ccc(C3=NCCN3)cc2)cc1
inactive: dose: 75.0 mg/kg/injection, schedule: Q01DX010 (ip), vehicle: saline 118 % of control | dose: 112.0 mg/kg/injection, schedule: Q01DX010 (ip), vehicle: saline 100 % of control

CC(=O)CCC1=C(C)C(=O)C(=O)C(C)=C1O
inactive: dose: 60.0 mg/kg/injection, schedule: Q01DX005 (ip), vehicle: Klucel (hydroxypropylcellulose) (HPC) 96 % of control | dose: 120.0 mg/kg/injection, schedule: Q01DX005 (ip), vehicle: Klucel (hydroxypropylcellulose) (HPC) 98 % of control
